# From PMC10986487, “Epidrugs: alternative chemotherapy targeting Theileria annulata schizont stage parasites” (Microbiology Spectrum, 2024)
# Like-named read-outs stand apart in the source and are kept apart here.
# Key:
# [1] = system: T. annulata-infected bovine cells; test: Resazurin-based drug susceptibility assay, 2-fold serial dilutions, 48 hours; assay type: cell-based, Theileria annulata; details: 0.019 µM to 10 µM, read-out: IC50 against T. annulata-infected cells
# Method: In this study, we conducted a screening of 148 compounds from the Cayman epigenetics library against the asexual schizont stage of T. annulata-infected bovine cells to assess their potential anti-theilerial activity (Fig. 1A). The initial screening involved testing the compounds at a concentration of 10 µM, with BPQ serving as the internal control. […] Subsequently, we performed drug susceptibility assays on the selected 27 compounds to determine their 50% inhibitory concentration (IC50) values against T. annulata-infected cells. To do this, 2-fold serial dilutions ranging from 0.019 µM to 10 µM were prepared, and the percentage of cell death was assessed after 48 hours using resazurin-based assays.
# Fig 1 Screening of epigenetic inhibitors for potential anti-theilerial activity in T. annulata-infected cells. (A) List of compounds and their functional classes used in this study. (B) Inhibition (%) of the hits (n = 27) with anti-theilerial activity when screened in T. annulata-infected cells, where the cut-off (--) was set at 50% inhibition. […] (E) Flow cytometry-based detection of annexin V-positive T. annulata-infected cells upon drug treatment for detection of early apoptosis.
# Theileria annulata = system: Theileria annulata; parameters: method as in earlier work; details: ref 14 (Titus et al.); read-out: Concentration displaying anti-theilerial effects; cited from earlier work
IC50 [1] [µM],Structure (SMILES),IC50 ([1]; Theileria annulata) [µM],IC50 (Theileria annulata) [µM]
6.97,COC(=O)/C=C/C(=O)N(O)CCCCNCc1ccc(COC(=O)Nc2cccc3ccccc23)cc1 [Methylstat],,
6.02,CC(/C=C/C(=O)NO)=C\[C@@H](C)C(=O)c1ccc(N(C)C)cc1 [Trichostatin A],,
2.18,Cc1ccc(NC2=CC(=O)c3sc(C)nc3C2=O)cc1 [Ryuvidine],,
,CC1=CC(=O)c2c(O)cccc2C1=O [Plumbagin],8.13,0.009
2.58,CC1(C)C(=O)N=C2C1=C(O)C(=O)c1ccccc12 [BVT-948],,
3.68,O=C(CCl)Nc1ccc(S(=O)(=O)c2ccc(NC(=O)CCl)cc2)cc1 [TCE-5003],,
